Measurements as given in US20050153943A1, “Methods of simultaneously treating mucositis and fungal infection” (priority 2002, published 2005).
Converted amounts (≈) assume the structure as drawn. Where a name gives a salt, the structure may show the parent alone. Marks after values point to notes of the source that are not given here.

What was measured:
[1] = system: 11 different species of fungi; assay: Summary of Example 40 over the whole panel; format: cell-based; details: 11 tested fungi, up to 4.00 μg/ml
Method: (§1) Each drug was dissolved in DMSO (1.0 mg/ml) as a stock solution and stored at −20° C. Just prior to use, each stock solution was thawed and diluted in DMSO to produce 6 different 100× concentrations. Potato dextrose agar was dissolved in distilled water (39 g/L) and sterilized at […] (250° F.) for 15 min. The agar solution was mixed with each drug (in a water bath at 60° C.) to make a series of final concentrations, i.e. 0.00, 0.25, 0.50, 1.00, 2.00, 4.00 μg/ml. The mixtures were then transferred to 24-well plates (1 ml/well). After the gel had formed, the fungus in PBS (spore count=1-5×10^4/ml) was inoculated by pipetting 10 μl onto each gel. The plates were incubated at 30° C. for different times, depending on the requirement of each species, e.g. 24 hours for Penicillium, Rhizopus, Tricothecium, Ulocladium, Absidia, Aspergilus, Caindida, Cunninghamella, 3 days for Scedosporium, and 5 days for Fonsecae and Phialophora.
(§2) “*” indicates better than or similar results to Amphotericin B. “NI” indicates no detectable inhibition.

Aspergillus f. [2] = assay: Direct comparison of CMT-3 and Amphotericin B, agar plates (Example 39); format: cell-based
Penicillium spores = assay: Fungistatic or fungicidal activity: pre-treatment of spores, dilution, regrowth on agar (Example 41); format: cell-based; details: for Growth rate of Penicillium in control cultures with low drug concentration: 0.01 and 0.05 μl/ml, no pre-treatment; for Type of antifungal activity (fungistatic or fungicidal): against Penicillium; for Growth of Penicillium on agar gels after pretreatment of spores: pretreatment with 10 and 50 μl/ml for 24 hours at 30° C., diluted 1000 times, 48 hours on agar
Method: In the pre-treatment phase of the experiment, Penicillium spores were suspended in PBS to achieve a spore count of 10^7/ml. CMT-3 and Amphotericin B were dissolved in DMSO to reach a concentration of 1.0 mg/ml as stock solutions. 10 or 50 μl aliquots of these stock solutions were added to the incubation mixture (containing 1.0 ml of 10^7/ml of Penicillium spores in PBS) to achieve a final concentration of 10 μg/ml or 50 μg/ml, respectively, for both drugs. The various incubations of Penicillium were carried out for 24 hours at 30° C.
After the pre-treatment phase, the reaction mixtures were diluted 1000 times with PBS, reducing the concentration of both drugs to 0.01 μg/ml or 0.05 μg/ml, and reducing the Penicillium spore count to 10^4/ml. These drug concentrations of both CMT-3 and Amphotericin B would not be expected to inhibit the growth of the viable Penicillium spores.
Controls were then prepared. Before incubation, each tube was either not diluted further, or diluted to ½ or ¼ with PBS to produce tubes with three different spore counts, ie, 10^4/ml, or 0.5×10^4/ml, or 0.25×10^4/ml. These cultures were then inoculated on potato dextrose agar gels in 24-well plates, and incubated at 30° C. for 48 hours to determine the rate of growth of the fungus as described before.
The controls were prepared from the suspension in the pre-treatment phase containing only Penicillium spores 10^7/ml, and PBS. This control was diluted by 1000 times with PBS to produce a spore count of 10^4/ml. 1.0 ml of this diluted spore suspension was added to eight tubes. The stock solutions of CMT-3 and Amphotericin B, and DMSO were also diluted by 1000 times with PBS (the new concentration being 1.0 μg/ml for both drugs and 0.1% for DMSO), and 10 or 50 μl of these solutions was added into the above tubes. The final concentrations in each tube was either 0.01 μg/ml or 0.05 μg/ml for both drugs (CMT-3 or AmB), or 0.001% or 0.005% for DMSO. These tubes were further treated as described above to determine the growth of the fungus as controls.

Aspergillus f. [3] = assay: Direct comparison of CMT-3 and Amphotericin B, agar plates (Example 39); format: cell-based; remark: listed apart in the source
Method: The plates were prepared as described above, using […], 0.50, 1.00 and 2.00 concentrations of each of the drugs tested. DMSO was used as a control

Rhizopus Species = assay: IC50 and MIC on microplate agar gels (Example 40); format: cell-based; details: agar gel, 0.25-4.00 μg/ml, 30° C., 24 hours; NI = no detectable inhibition
Method: as §1, §2

Candida Albicans = assay: IC50 and MIC on microplate agar gels (Example 40); format: cell-based; details: agar gel, 0.25-4.00 μg/ml, 30° C., 24 hours; NI = no detectable inhibition
Method: as §1, §2

Scedosporium Apiospermum = assay: IC50 and MIC on microplate agar gels (Example 40); format: cell-based; details: agar gel, 0.25-4.00 μg/ml, 30° C., 3 days; NI = no detectable inhibition
Method: as §1, §2

Fonsecae Species = assay: IC50 and MIC on microplate agar gels (Example 40); format: cell-based; details: agar gel, 0.25-4.00 μg/ml, 30° C., 5 days; NI = no detectable inhibition
Method: as §1, §2

Ulocladium Species = assay: IC50 and MIC on microplate agar gels (Example 40); format: cell-based; details: agar gel, 0.25-4.00 μg/ml, 30° C., 24 hours; NI = no detectable inhibition
Method: as §1, §2

Absidia Species = assay: IC50 and MIC on microplate agar gels (Example 40); format: cell-based; details: agar gel, 0.25-4.00 μg/ml, 30° C., 24 hours; NI = no detectable inhibition
Method: as §1, §2

Aspergilus Fumigatus = assay: IC50 and MIC on microplate agar gels (Example 40); format: cell-based; details: agar gel, 0.25-4.00 μg/ml, 30° C., 24 hours; NI = no detectable inhibition
Method: as §1, §2

Penicillium Species = assay: IC50 and MIC on microplate agar gels (Example 40); format: cell-based; details: agar gel, 0.25-4.00 μg/ml, 30° C., 24 hours; NI = no detectable inhibition
Method: as §1, §2

[4] = Toxicity in vivo (statement); details: at 2.0 μg/ml concentration; unlike AmB
Rhizopus sp. = assay: Fungal growth on SABHI agar containing CMT (Example 38); format: cell-based; details: 25 μg/ml agar, Example 38
Method: The following fungi were inoculated onto potato dextrose agar (PDA) from stock cultures and incubated aerobically at 30° C.: Aspergillus [NT] 1022, Penicillium sp. (laboratory isolate), Candida albicans, ATCC 14053, and Rhizopus sp. […] The conidia were suspended in 0.9% saline and the turbidity was adjusted to match a 0.5 MacFarland standard (equivalent to approximately 1.5×10^8 cells). Candida albicans was suspended in saline and adjusted to 0.5 MacFarland in a similar manner. These suspensions were diluted 1:100 in sterile 0.9% saline. SABHI Agar (Difco) pH 7.0 was prepared in 100 ml amounts and sterilized at 121° C. for 15 min. […] SABHI Agar plates of each CMT and SAHBI agar without CMT using dimethylsulphoxide (DMSO) as a control were inoculated with 10 μl of conidia suspension of Aspergillus fumigatus, Penicillium sp. and Rhizopus sp. and 10 μl suspension of Candida albicans prepared as described above. The plates were then incubated aerobically for 24 hour and for 48 hours at 30° C. The results are set forth in Table 1 (24 hr. incubation) and Table 2 (48 hr. incubation). [table]

[5] = system: eleven different species of fungi; details: cited from earlier work
Cunninghamella Species = assay: IC50 and MIC on microplate agar gels (Example 40); format: cell-based; details: agar gel, 0.25-4.00 μg/ml, 30° C., 24 hours; NI = no detectable inhibition
Method: as §1, §2

Phialophora Verrucosa = assay: IC50 and MIC on microplate agar gels (Example 40); format: cell-based; details: agar gel, 0.25-4.00 μg/ml, 30° C., 5 days; NI = no detectable inhibition
Method: as §1, §2

Tricothecium Species = assay: IC50 and MIC on microplate agar gels (Example 40); format: cell-based; details: agar gel, 0.25-4.00 μg/ml, 30° C., 24 hours; NI = no detectable inhibition
Method: as §1, §2

[6] = single dose of two 100 mg minocycline HCl tablets; cited from earlier work
[7] = 250 mg every six hours over a twenty-four hour period; cited from earlier work

| SMILES | Antifungal activity over the panel (summary in words) [1] | Growth grade at Conc. 0.25 μg/ml (Aspergillus f. [2]) | Growth rate of Penicillium in control cultures with low drug concentration (Penicillium spores) | Type of antifungal activity (fungistatic or fungicidal) (Penicillium spores) | Growth of Penicillium on agar gels after pretreatment of spores (Penicillium spores) | Growth grade at Conc. 0.125 μg/ml (Aspergillus f. [3]) | Growth grade at Conc. 0.50 μg/ml (Aspergillus f. [3]) | Fungal growth inhibited (Aspergillus f. [3]; 1.0 μg/ml) [%] | Fungal growth inhibited (Aspergillus f. [3]; 2.0 μg/ml) [%] | Growth grade at Conc. 2.00 μg/ml (Aspergillus f. [3]) | IC50 (Rhizopus Species) [mg/L] | MIC (Rhizopus Species) [mg/L] | IC50 (Candida Albicans) [mg/L] | MIC (Candida Albicans) [mg/L] | IC50 (Scedosporium Apiospermum) [mg/L] | MIC (Scedosporium Apiospermum) | IC50 (Fonsecae Species) [mg/L] | MIC (Fonsecae Species) | IC50 (Ulocladium Species) [mg/L] | MIC (Ulocladium Species) | also measured |
| --- | --- | --- | --- | --- | --- | --- | --- | --- | --- | --- | --- | --- | --- | --- | --- | --- | --- | --- | --- | --- | --- |
| C[C@@H]1[C@H](O)[C@@H](C)/C=C/C=C/C=C/C=C/C=C/C=C/C=C/[C@H](O[C@@H]2O[C@H](C)[C@@H](O)[C@H](N)[C@@H]2O)C[C@@H]2O[C@](O)(C[C@@H](O)C[C@@H](O)[C@H](O)CC[C@@H](O)C[C@@H](O)CC(=O)O[C@H]1C)C[C@H](O)[C@H]2C(=O)O [AmB, Amphotericin B] | the same or less antifungal activity than CMT-3 | 2 (50% reduction in growth of colonies compared to control.) | did not inhibit the growth | fungistatic | same rate of growth as PBS and DMSO controls | 4 (Level of growth in the absence of anti-fungal agent (control).) | 1 (75% reduction in growth in colonies compared to control.) | 100 | 100 | 0 (complete inhibition of growth.) | 0.4 (≈ 0.433 µM) | 1.0 (≈ 1.08 µM) | 0.5 (≈ 0.541 µM) | 1.0 (≈ 1.08 µM) | 4.0 (≈ 4.33 µM) | >4 µg/mL | 4.0 (≈ 4.33 µM) | >4.0 µg/mL | 1.0 (≈ 1.08 µM) | 2.0 µg/mL (≈ 2.16 µM) | Growth grade at Conc. 1.00 μg/ml (Aspergillus f. [3]; 1.00 μg/ml): 0 (complete inhibition of growth.); IC50 (Absidia Species): 1.0 mg/L (≈ 1.08 µM); MIC (Absidia Species): 4.0 µg/mL (≈ 4.33 µM); IC50 (Aspergilus Fumigatus): 0.8 mg/L (≈ 0.866 µM); MIC (Aspergilus Fumigatus): 2.0 µg/mL (≈ 2.16 µM); IC50 (Penicillium Species): 0.12 mg/L (≈ 0.13 µM); MIC (Penicillium Species): 0.25 mg/L (≈ 0.271 µM) |
| NC(=O)C1=C(O)C[C@@H]2C[C@@H]3Cc4cccc(O)c4C(=O)C3=C(O)[C@]2(O)C1=O [COL 3, 6-demethyl-6-deoxy-4-dedimethylaminotetracycline] | effective on all 11 tested fungi | 2 (50% reduction in growth of colonies compared to control.) | did not inhibit the growth | fungicidal | little or no growth | 4 (Level of growth in the absence of anti-fungal agent (control).) | 1 (75% reduction in growth in colonies compared to control.) | 95 | 100 | 0 (complete inhibition of growth.) | 0.8 (≈ 2.15 µM) | 2.0 (≈ 5.39 µM) | 1.0 (≈ 2.69 µM) | 2.0 (≈ 5.39 µM) | 0.2 (≈ 0.539 µM) | 1.5* μg/ml | 1.0 (≈ 2.69 µM) | 4.0* μg/ml | 0.25 (≈ 0.673 µM) | 1.0* μg/ml | Toxicity in vivo [4]: very little toxicity; Anti-fungal activity (summary in words) (Rhizopus sp.): inhibited; Anti-fungal activity in vitro (Lu et al.) [5]: anti-fungal activity with eight of the eleven species; IC50 (Cunninghamella Species): 2.0 mg/L (≈ 5.39 µM); MIC (Cunninghamella Species): 4.0* μg/ml; IC50 (Phialophora Verrucosa): 1.5 mg/L (≈ 4.04 µM); MIC (Phialophora Verrucosa): 4.0* μg/ml; IC50 (Absidia Species): 1.5 mg/L (≈ 4.04 µM); MIC (Absidia Species): 4.0* μg/ml; IC50 (Aspergilus Fumigatus): 0.5 mg/L (≈ 1.35 µM); MIC (Aspergilus Fumigatus): 1.0* μg/ml; IC50 (Penicillium Species): 0.2 mg/L (≈ 0.539 µM); MIC (Penicillium Species): 0.5 mg/L (≈ 1.35 µM); IC50 (Tricothecium Species): 0.2 mg/L (≈ 0.539 µM); MIC (Tricothecium Species): 1.5* μg/ml |
| CN(C)c1ccc(O)c2c1C[C@H]1C[C@H]3[C@H](N(C)C)C(O)=C(C(N)=O)C(=O)[C@@]3(O)C(O)=C1C2=O [minocycline HCl] | – | – | – | – | – | – | – | – | – | – | – | – | – | – | – | – | – | – | – | – | average minocycline serum level [6]: 2.24 µg/mL |
| CN(C)[C@@H]1C(O)=C(C(N)=O)C(=O)[C@@]2(O)C(O)=C3C(=O)c4c(O)cccc4[C@@](C)(O)[C@H]3C[C@@H]12 [tetracycline HCl] | – | – | – | – | – | – | – | – | – | – | – | – | – | – | – | – | – | – | – | – | peak plasma concentration [7]: approximately 3 μg/ml |
